Our source for the TGI values is PubChem BioAssay (NCI).

Some test systems named below: TK-10 renal; HCT-116 colon; CAKI-1 renal; T-47D breast; HL-60(TB) leukemia; MOLT-4 leukemia; HOP-62 NSCLC; OVCAR-5 ovarian; HCT-15 colon; K-562 leukemia.
Holding throughout (assay): NCI-60 cell line screen, 48 h

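Protocol summary: plate cells (96-well), add compound at 5 concentrations, incubate 48 h, interpolate endpoints linearly. TGI marks complete inhibition of growth.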 Bounds are passed on as bounds.

As for `NC(CCl)=NC1CN2CCC1CC2` (stereo not given), the TGI in the assay with TK-10 renal, in the assay on HCT-116 colon, in the assay with CAKI-1 renal, with T-47D breast, in the assay on HL-60(TB) leukemia and in the assay with MOLT-4 leukemia was above 100 µM in each case. Besides, the TGI in the assay with HOP-62 NSCLC, in the assay with OVCAR-5 ovarian, in the assay with HCT-15 colon and in the assay with K-562 leukemia was above 100 µM throughout.
As to `C=C(C)[C@@H]1CC[C@]2(CO)CC[C@]3(C)[C@H](CC[C@@H]4[C@@]5(C)CC[C@H](O)C(C)(C)[C@@H]5CC[C@]43C)[C@@H]12`, the TGI in the assay with TK-10 renal is 38 µM; with HCT-116 colon it was above 100 µM; in the assay on CAKI-1 renal it was 29 µM; with T-47D breast, above 100 µM; in the assay with HL-60(TB) leukemia, above 100 µM; in the assay with MOLT-4 leukemia it was above 100 µM. Besides, the TGI was 42.1 µM with HOP-62 NSCLC, above 100 µM with OVCAR-5 ovarian, above 100 µM in the assay on HCT-15 colon and above 100 µM in the assay on K-562 leukemia.
Take `Cc1ccc(C(=O)Cc2nc3ncccc3[nH]c2=O)cc1`: the TGI in the assay with TK-10 renal is 57.4 µM; in the assay on HCT-116 colon, 70.4 µM; in the assay on CAKI-1 renal it was above 100 µM; in the assay with T-47D breast, above 100 µM; with HL-60(TB) leukemia it was above 100 µM; with MOLT-4 leukemia it was above 100 µM. The TGI with HOP-62 NSCLC is 48.4 µM; in the assay with OVCAR-5 ovarian, above 100 µM; in the assay on HCT-15 colon, above 100 µM; in the assay with K-562 leukemia, above 100 µM.
`COc1cc(CCNC2=CC(=O)c3cccnc3C2=O)ccc1O`: the TGI with TK-10 renal came to 30.5 µM; in the assay on HCT-116 colon, 4.8 µM; in the assay on CAKI-1 renal, 5.04 µM; in the assay with T-47D breast it was 35.1 µM; in the assay with HL-60(TB) leukemia it was 9.43 µM; in the assay with MOLT-4 leukemia, 18.2 µM. Moreover, the TGI in the assay on HOP-62 NSCLC is 2.86 µM; with OVCAR-5 ovarian, 2.99 µM; in the assay on HCT-15 colon, 2.58 µM; in the assay on K-562 leukemia, 2.15 µM.
As for `COc1ccc2c(c1)c(=O)c1c(NCCCN(C)CCCNc3ccc4c(=O)n(CCN(C)C)c(=O)n5c6ccc(OC)cc6c(=O)c3c45)ccc3c(=O)n(CCN(C)C)c(=O)n2c31`, the TGI in the assay on TK-10 renal came out at 6.6 µM; in the assay with HCT-116 colon it was 1.13 µM; in the assay with CAKI-1 renal, 0.784 µM; in the assay on T-47D breast, 9.43 µM; with HL-60(TB) leukemia, 0.963 µM; in the assay with MOLT-4 leukemia, 0.118 µM. The TGI was 1.04 µM in the assay on HOP-62 NSCLC, 3.63 µM in the assay with OVCAR-5 ovarian, 0.617 µM in the assay with HCT-15 colon and 1.11 µM in the assay on K-562 leukemia.
On to `c1ccc2c(c1)nc1n2CCNC1`, for which the TGI in the assay with TK-10 renal, in the assay with HCT-116 colon, in the assay on CAKI-1 renal, in the assay with T-47D breast, in the assay on HL-60(TB) leukemia and in the assay with MOLT-4 leukemia was above 100 µM throughout. The TGI with HOP-62 NSCLC, with OVCAR-5 ovarian, in the assay on HCT-15 colon and with K-562 leukemia was above 100 µM each time.
With `COc1ccc(C2c3cc4c(cc3OC(NNC(N)=O)C2C)OCO4)cc1` (stereo not given), the TGI is above 100 µM with TK-10 renal; 21.5 µM in the assay with HCT-116 colon; above 100 µM with CAKI-1 renal; above 100 µM in the assay on T-47D breast; 5.22 µM with HL-60(TB) leukemia; 74.5 µM in the assay with MOLT-4 leukemia. Also, the TGI with HOP-62 NSCLC is above 54.4 µM; with OVCAR-5 ovarian, above 100 µM; with HCT-15 colon, 36.3 µM; with K-562 leukemia it was above 34.9 µM.
Regarding `CC(C)=CCC/C(=C\CC/C(=C\CCc1ccoc1)C(=O)O)C(=O)O`, the TGI in the assay on TK-10 renal, in the assay with HCT-116 colon, in the assay with CAKI-1 renal, with T-47D breast, in the assay on HL-60(TB) leukemia and in the assay on MOLT-4 leukemia was above 100 µM each time. In addition, the TGI with HOP-62 NSCLC, in the assay with OVCAR-5 ovarian, in the assay with HCT-15 colon and in the assay on K-562 leukemia was above 100 µM throughout.
Turning to `Cc1ccc(C2(N3CCCC3)OC(C)(C)c3cccc4cccc2c34)cc1` (stereo not given), the TGI is 38.6 µM in the assay with TK-10 renal; 38.4 µM in the assay with HCT-116 colon; 36.5 µM in the assay with CAKI-1 renal; 46.9 µM with T-47D breast; above 100 µM in the assay on HL-60(TB) leukemia; above 100 µM with MOLT-4 leukemia. Besides, the TGI in the assay with HOP-62 NSCLC is 32.3 µM; with OVCAR-5 ovarian it was 31.4 µM; in the assay on HCT-15 colon it was 32.2 µM; in the assay with K-562 leukemia, above 100 µM.
As for `COc1ccc(/C=C2\Sc3nnc(C)n3N=C2c2cc(F)c(Cl)cc2Cl)cc1OC`, the TGI in the assay with TK-10 renal was 32.8 µM; in the assay on HCT-116 colon it was 18.5 µM; in the assay on CAKI-1 renal, 23.7 µM; in the assay with T-47D breast it was above 100 µM; in the assay with HL-60(TB) leukemia, 96.4 µM; with MOLT-4 leukemia, above 100 µM. The TGI came out at 33.3 µM in the assay on HOP-62 NSCLC, 31.2 µM in the assay with OVCAR-5 ovarian, 21.9 µM in the assay on HCT-15 colon and 19.5 µM in the assay with K-562 leukemia.
With `C/C=C1\CN2CCC34c5ccccc5N(C)C35OCC4(C(=O)OC)C1CC25` (stereo not given), the TGI with TK-10 renal was above 100 µM; with HCT-116 colon, above 100 µM; with CAKI-1 renal it was above 100 µM; with T-47D breast it was 75.7 µM; in the assay on HL-60(TB) leukemia, 78.3 µM; with MOLT-4 leukemia, above 100 µM. For the same compound, the TGI with HOP-62 NSCLC, in the assay with OVCAR-5 ovarian, with HCT-15 colon and in the assay with K-562 leukemia was above 100 µM each time.
